In series [1] the test system is S. aureus (clin. isolate Liberec). Kind of series: Induced osteomyelitis model in femur heads: effect of peptides released from carrier on infection in the bone graft. Conditions: ChronOS (200 mg); 10 mg; two days; carrier without peptide 1,4x10^7. It counts as cell-based. The method, then: (§1) 3-4 holes of a diameter of 5 mm and a depth of 10 mm are drilled with a surgical spoon into a femur head under sterile conditions (spongy part of the bone in the resection site). Thereafter, this bone graft is put into a beaker of appropriate size and lined with sterile gauze squares. The gauze is moistened with sterile physiological saline to prevent drying of the bone. Then, suspension of multiplied microbes in an appropriate medium (50-100 µl) at a concentration of 10^7 to 10^9 CFU is sequentially applied to the prepared holes in the bone graft and allowed to incubate for 1-2 days. […] Beaker with the infected bone graft is covered with a sterile Petri dish. During the experiment, induced osteomyelitis models are kept protected from light at room temperature.
(§2) After the incubation, the infected holes in the bone are filled with a mixture of the local carrier, and a peptide selected from the series of peptides of formulae I to XIII or their specific enantiomers (Figure 1). For comparison, one of the holes is filled with the local carrier without peptide, or the carrier filled with antibiotic (vancomycin or gentamicin). A commercially available two-component material supplied by Synthes (Synthes GmbH, Switzerland) under the name ChronOS Inject was used as the carrier. Its solid component comprises a mixture of calcium phosphates CaHPO4.2H2O and Ca3(PO4)2 and additives, the liquid component is 0.5% (vol./vol.) solution of hyaluronic acid.
(§3) After two days, the filling is thoroughly removed with a surgical spoon and empty holes are wiped with moistened sterile cotton swab, which is then extracted into 400 µl physiological saline. The extract is diluted in a tenfold serial dilution and each diluted suspension is cultured on agar in Petri dishes; the culture is evaluated on the following day. […] The result of the peptide effect is also compared with the result of the effect of antibiotics. In some cases, microbiological examination of the bone tissue taken with a surgical spoon from a deeper area of the drilled holes is performed. […] Table 3. Evaluation of the effect of antimicrobial peptides released from the carrier on an infection in the bone graft. Effect of antimicrobial activity is expressed in the number of CFU (colony-forming units) in the infected hole after swabbing.

The test system of a further series is human red blood cells. Kind of series: Determination of haemolytic activity. In kind it is cell-based. The following applies: human red blood cells (5% v/v), 1 h at 37 °C; concentration for lysis of 50% of erythrocytes. The method, then:
The peptides in the concentrations 2-400 µmol.1^-1 were incubated with the suspension of human red blood cells (5% v/v) for 1 h at 37 °C in a physiological solution at a final volume of 0.2 ml. The samples were then centrifuged for 5 min at 250 g. The absorbance of the supernatant was determined at 540 nm. 0.2% (v/v) TRITON X100 was used as a control for 100% haemolysis. Haemolytic activity is expressed as the peptide concentration required for lysis of 50% of human erythrocytes in the assay (LC50). Table 2. Antimicrobial and haemolytic activity of I up to XIII peptides and tetracycline.

The test system of series [2] is E.f. (clin. isolate Motol). In kind it is cell-based, Enterococcus faecalis. Conditions: 37° C for 20 h. The procedure:
(§4) Gram-positive bacteria (Bacillus subtilis, Staphylococcus aureus, Staphylococcus epidermidis and Enterococcus faecalis), Gram-negative bacteria (Escherichia coli and Pseudomonas aeruginosa) and the yeast (Candida albicans) were grown to exponential phase and then were diluted with fresh medium. BHI medium (Oxoid, Great Britain) was used for Enterococcus faecalis; YPD medium containing yeast extract, peptone and glucose was used for Candida albicans and LB medium (Sigma, Czech Republic) was used for the remaining microorganisms. Then the microorganisms were added to the solutions of the tested antimicrobial peptides in LB medium in multi-well plates, so that the final peptide concentration it the wells was in the range of 0.5 to 100 µmοl.1^-1. The plates were incubated at 37° C for 20 h while being continuously shaken in a Bioscreen C (Oy Growth Curves AB Ltd., Helsinki, Finland). Absorbance was measured at 540 nm every 15 min. Antimicrobial activity (Table 2) was determined as a quantitative minimum inhibitory concentration (MIC) by observing bacterial growth in the presence of different concentrations of tested peptides. In the experiments, ca 10^5 CFU of bacteria or candida per well were used. Tetracycline in a concentration range of 0.5 - 100 µmol.1^-1 was used as a standard.
(§5) Clinical isolates of bacteria were obtained from University Hospital in Motol, Prague, Czech Republic and from Liberec Regional Hospital, Czech Republic. Methicillin resistant Staphylococcus aureus (MRSA) 6271 and Pseudomonas aeruginosa 5482 were from the Czech National Collection of Type Cultures, the National Institute of Public Health, Prague, Czech Republic. Other bacteria were from the Czech Collection of Microorganisms, Brno, Czech Republic. Candida albicans came from the Faculty of Medicine, Palacky University, Olomouc, Czech Republic. Candida tropicalis ATCC 750 and Candida glabrata DSY 565 were obtained from the Institute of Physiology, Academy of Sciences of the Czech Republic.

In series [3] the test system is P.a. (clin. isolate Liberec). It counts as cell-based, Pseudomonas aeruginosa. The following applies: 37° C for 20 h. The method, then: as §4, §5
For the next series, the system named is P.a. 5482. It counts as cell-based, Pseudomonas aeruginosa. Conditions: 37° C for 20 h. The method, then: as §4, §5
The subject of series [4] is MRSA (clin. isolate Motol). It counts as cell-based, Staphylococcus aureus. The following applies: 37° C for 20 h. The procedure:
as §4, §5

Series [5] deals with MRSA (clin. isolate Liberec). It counts as cell-based, Staphylococcus aureus. Conditions: 37° C for 20 h. The procedure:
as §4, §5

Series [6] deals with MRSA 6271. It counts as cell-based, Staphylococcus aureus. The following applies: 37° C for 20 h. The procedure:
as §4, §5

The test system of series [7] is S.e. (clin. isolate Motol). It counts as cell-based, Staphylococcus epidermidis. Conditions: 37° C for 20 h. The method, then: as §4, §5
Another series concerns Escherichia coli. In kind it is cell-based. Conditions: E.c.; 37° C for 20 h. The procedure:
as §4, §5

In another series the test system is Candida albicans. It counts as cell-based. The following applies: C.a.; 37° C for 20 h. The method, then: as §4, §5
For another series, the system named is Bacillus subtilis. It counts as cell-based. The following applies: B.s.; 37° C for 20 h. The procedure: as §4, §5
Series [8] deals with S. epidermidis (clin. isolate Motol). Nature of the series: Induced osteomyelitis model in femur heads: effect of peptides released from carrier on infection in the bone graft. In kind it is cell-based. The following applies: 10 mg, two days. The method, then: as §1, §2, §3
The subject of series [9] is MRSA 6271. Kind of series: Biofilm formation on the surface of a bone cement implant in femur heads. It counts as cell-based, Staphylococcus aureus. The following applies: two days, cement without peptide 6.0x10^4.
Procedure: The resulting elastic paste is placed into a 2 ml plastic syringe (without needle) and pressed into the infected holes in the spongy part of the bone, where it polymerizes and hardens. For comparison, other similarly infected holes are filled with cement containing only an antibiotic or antimycotic agent. For comparison, a Vancogenx® cement (Tecresa S. p. A., Italy) is used, made from a mixture of a powdered polymer component containing vancomycin and gentamicin. The mixture in an amount of 125 mg is mixed with liquid monomer (50-60 µl) and then pressed into the openings as described above. In another embodiment, the cements are applied to uninfected holes, allowed to harden, and then microbes are pipetted into the hole excavated between implants. From there they penetrate through bone tissue and settle on the implants with consequent formation of biofilms.
After two days, implants are removed with metal spikes and tweezers, mechanically cleaned from debris of bone tissue, and washed four times with physiological saline (0.5 ml) in plastic tubes to remove any residual planktonic microbes or bone cells from their surface. The implants in closed tubes with 0.4 ml saline are then sonicated four times for 3 min with occasional shaking. The of microbial biofilm on the surface of the implant is thus disrupted and microbes are loosed into the physiological saline. The resulting suspension is subsequently diluted using the tenfold serial dilution for culturing on agar.
Evaluation of the effect of antimicrobial peptides on the formation of microbial biofilm on the surface of the implant made of the bone cement.

Square brackets hold non-standard residues; d marks the D form. Peptide text beside a SMILES is read from it. Met(O) = CS(=O)CC[C@H](N)C(=O)O; βAla = NCCC(=O)O

As to `CC[C@@H](C)[C@@H](NC(=O)[C@@H](CCCCN)NC(=O)[C@@H](CCCCN)NC(=O)[C@@H](CC(C)C)NC(=O)[C@@H](CC(C)C)NC(=O)[C@@H](CCCCN)NC(=O)[C@@H](CCSC)NC(=O)[C@@H](Cc1c[nH]c2ccccc12)NC(=O)[C@H](N)CCCCN)C(=O)N[C@H](CC(C)C)C(=O)N[C@H](CCCCN)C(N)=O` [II] (H-[dK][dW][dM][dK][dL][dL][dK][dK][dI][dL][dK]-NH2), in series [1], the CFU/hole is 1,8 x10^4 CFU/hole. Besides, the “Hemolytic activity LC50” value with human red blood cells is over 400 µM.

Take `CC[C@@H](C)[C@@H](NC(=O)[C@@H](CCCCN)NC(=O)[C@@H](CCCCN)NC(=O)[C@@H](CC(C)C)NC(=O)[C@@H](CC(C)C)NC(=O)[C@@H](CCCCN)NC(=O)[C@@H](CCSC)NC(=O)[C@@H](Cc1c[nH]c2ccccc12)NC(=O)[C@@H](CCCCN)NC(=O)CN)C(=O)N[C@H](CC(C)C)C(=O)N[C@H](CCCCN)C(N)=O` [IV]: the “Antimicrobial activity MIC” value in series [2] is 12,7 µmol.l^-1; in series [3] it was 12,5 µmol.l^-1; in the series with P.a. 5482, 4,5 µmol.l^-1; in series [4], 9,7 µmol.l^-1; in series [5], 5,3 µmol.l^-1; in the series on MRSA 6271 [6], 11,3 µmol.l^-1. For the same compound, the “Antimicrobial activity MIC” value in series [7] was 2,0 µmol.l^-1; in the series with Escherichia coli, 3,0 µmol.l^-1; in the series with Candida albicans, 5,7 µmol.l^-1; in the series with Bacillus subtilis, 1,4 µmol.l^-1. The “Hemolytic activity LC50” value with human red blood cells was over 400 µM.

As to `CC[C@@H](C)[C@@H](NC(=O)[C@@H](CCCCN)NC(=O)[C@@H](CCCCN)NC(=O)[C@@H](CC(C)C)NC(=O)[C@@H](CC(C)C)NC(=O)[C@@H](CCCCN)NC(=O)[C@H](NC(=O)[C@@H](Cc1c[nH]c2ccccc12)NC(=O)[C@@H](CCCCN)NC(=O)CN)C(C)C)C(=O)N[C@H](CC(C)C)C(=O)N[C@H](CCCCN)C(N)=O` [IX] (H-G[dK][dW][dV][dK][dL][dL][dK][dK][dI][dL][dK]-NH2), the CFU/hole in series [8] (ChronOS (300 mg), separate holes, carrier without peptide 1,2x10^5) was 0 in all cases CFU/hole. In addition, the “Hemolytic activity LC50” value with human red blood cells was over 400 µM.

For `CC[C@H](C)[C@H](NC(=O)[C@H](CCCCN)NC(=O)[C@H](CCCCN)NC(=O)[C@H](CC(C)C)NC(=O)[C@H](CC(C)C)NC(=O)[C@H](CCCCN)NC(=O)[C@H](CC(C)C)NC(=O)[C@H](Cc1c[nH]c2ccccc12)NC(=O)[C@H](CCCCN)NC(=O)CN)C(=O)N[C@@H](CC(C)C)C(=O)N[C@@H](CCCCN)C(N)=O` [Peptide VII] (H-GKWLKLLKKILK-NH2), the “Antimicrobial activity MIC” value in [2] is listed as 50,7 µmol.l^-1; in [3], 10,7 µmol.l^-1; in the series on P.a. 5482, 4,0 µmol.l^-1; in [4], 10,0 µmol.l^-1; in series [5], 8,0 µmol.l^-1; in the series with MRSA 6271 [6], 10,0 µmol.l^-1. The “Antimicrobial activity MIC” value was 2,2 µmol.l^-1 in series [7], 5,0 µmol.l^-1 in the series on Escherichia coli, 16,0 µmol.l^-1 with Candida albicans and 2,0 µmol.l^-1 in the series on Bacillus subtilis. Further, in [8] (ChronOS (200 mg), carrier without peptide 7,2x10^4), the CFU/hole is on record as 1,2 x10^2 CFU/hole. The “Hemolytic activity LC50” value in the series on human red blood cells is 196 µM.

On to `CC[C@@H](C)[C@@H](NC(=O)[C@@H](CCCCN)NC(=O)[C@@H](CCCCN)NC(=O)[C@@H](CC(C)C)NC(=O)[C@@H](CC(C)C)NC(=O)[C@@H](CCCCN)NC(=O)[C@@H](CCSC)NC(=O)[C@@H](Cc1c[nH]c2ccccc12)NC(=O)[C@@H](CCCCN)NC(=O)CCN)C(=O)N[C@H](CC(C)C)C(=O)N[C@H](CCCCN)C(N)=O` [Peptide VI] (H-[βAla][dK][dW][dM][dK][dL][dL][dK][dK][dI][dL][dK]-NH2), for which, in the series on human red blood cells, the “Hemolytic activity LC50” value was over 400 µM.

Take `CC[C@H](C)[C@H](NC(=O)[C@H](CCCCN)NC(=O)[C@H](CCCCN)NC(=O)[C@H](CC(C)C)NC(=O)[C@H](CC(C)C)NC(=O)[C@H](CCCCN)NC(=O)[C@H](CC[S+](C)[O-])NC(=O)[C@H](Cc1c[nH]c2ccccc12)NC(=O)[C@H](CCCCN)NC(=O)CN)C(=O)N[C@@H](CC(C)C)C(=O)N[C@@H](CCCCN)C(N)=O` (stereo partly drawn) [XII] (H-GKW[Met(O)]KLLKKILK-NH2): the “Antimicrobial activity MIC” value in series [2] is over 100 µmol/L; in series [3], 22,1 µmol.l^-1; in the series on P.a. 5482, 5,0 µmol.l^-1; in [4] it was 25,3 µmol.l^-1; in series [5], 11,5 µmol.l^-1; with MRSA 6271 [6] it was 64,0 µmol.l^-1. For the same compound, the “Antimicrobial activity MIC” value is reported as 5,0 µmol.l^-1 in [7], 26,7 µmol.l^-1 with Escherichia coli, 21,3 µmol.l^-1 in the series with Candida albicans and 2,5 µmol.l^-1 in the series with Bacillus subtilis. In the series with MRSA 6271 [9], this compound yielded a CFU/implant of 0 CFU/implant. In addition, the “Hemolytic activity LC50” value with human red blood cells was over 400 µM.

For `CC[C@H](C)[C@H](NC(=O)[C@H](CCCCN)NC(=O)[C@H](CCCCN)NC(=O)[C@H](CC(C)C)NC(=O)[C@H](CC(C)C)NC(=O)[C@H](CCCCN)NC(=O)[C@H](CCCCN)NC(=O)[C@H](Cc1c[nH]c2ccccc12)NC(=O)[C@H](CCCCN)NC(=O)CN)C(=O)N[C@@H](CC(C)C)C(=O)N[C@@H](CCCCN)C(N)=O` [X] (H-GKWKKLLKKILK-NH2), the “Antimicrobial activity MIC” value in series [2] was over 100 µmol/L; in [3], 9,5 µmol.l^-1; in the series with P.a. 5482, 2,9 µmol.l^-1; in [4], 25,3 µmol.l^-1; in series [5], 11,5 µmol.l^-1; in the series with MRSA 6271 [6], 29,7 µmol.l^-1. In addition, the “Antimicrobial activity MIC” value in [7] is 4,7 µmol.l^-1; in the series on Escherichia coli, 11,5 µmol.l^-1; in the series with Candida albicans it was 9,5 µmol.l^-1; in the series on Bacillus subtilis, 2,4 µmol.l^-1. For the same compound, the “Hemolytic activity LC50” value with human red blood cells is over 400 µM.

(Values after patent publication EP3570868B1, “[…] ANTIMICROBIAL PEPTIDES AND THEIR APPLICATIONS FOR THE TREATMENT AND PREVENTION OF MUSCU[…]” (Ustav Organicke Chemie a Biochemie AV CR, v.v.i., priority 2017, dated 2018).)
